Species: Rattus norvegicus
Assay: Open TG-GATES - Regimen: Daily Repeat
Assay type: toxicity, organism-based, Sprague-Dawley
Parameters: regimen Daily Repeat, gender Male, age 6 weeks
Details: in vivo, po, 300 mg/kg, route gavage, dose level High; for APTT / Bas / Eos / Fbg / Hb / Ht / Lym / MCH / MCHC / MCV / Mono / Neu / PT / Plat / RBC / Ret / WBC: tissue Blood; for KIDNEY_L / KIDNEY_R / KIDNEY_TOTAL: tissue Kidney; for LIVER: tissue Liver; for A/G / ALP / ALT / AST / BUN / CRE / Ca / Cl / DBIL / GLC / IP / K / LDH / Na / PL / RALB / TBIL / TC / TG / TP / gamma-GTP: tissue Plasma

With `O=C(O)COc1nn(Cc2ccccc2)c2ccccc12` [BENDAZAC] the TERMINAL_BW (72 h, time 3 day) was 223.3 g, the APTT (72 h, time 3 day) was 19 s and the Bas (72 h, time 3 day) was 0%. For the same compound, the Eos (72 h, time 3 day) was 0.8%, the Fbg (72 h, time 3 day) was 218 mg/dL and the Hb (72 h, time 3 day) was 14.2 g/dL. The Ht (72 h, time 3 day) was 42%, the Lym (72 h, time 3 day) was 75.2% and the MCH (72 h, time 3 day) was 21.6 pg. For the same compound, the MCHC (72 h, time 3 day) was 33.7%, the MCV (72 h, time 3 day) was 64.2 fL and the Mono (72 h, time 3 day) was 9.2%. It also gave a Neu (72 h, time 3 day) of 14.4%, a PT (72 h, time 3 day) of 12.3 s and a Plat (72 h, time 3 day) of 133.3 x10_4/uL. The RBC (72 h, time 3 day) was 655.2 x10_4/ul, the Ret (72 h, time 3 day) was 6.2% and the WBC (72 h, time 3 day) was 109.6 x10_2/uL. It also gave a KIDNEY_L (72 h, time 3 day) of 1 g, a KIDNEY_R (72 h, time 3 day) of 1.1 g and a KIDNEY_TOTAL (72 h, time 3 day) of 2.1 g. The LIVER (72 h, time 3 day) was 13.4 g, the A/G (72 h, time 3 day) was 2.3 and the ALP (72 h, time 3 day) was 1088.6 IU/L. The ALT (72 h, time 3 day) was 44.4 IU/L, the AST (72 h, time 3 day) was 75.8 IU/L and the BUN (72 h, time 3 day) was 17.4 mg/dL. For the same compound, the CRE (72 h, time 3 day) was 0.6 mg/dL, the Ca (72 h, time 3 day) was 10.8 mg/dL and the Cl (72 h, time 3 day) was 103.6 meq/L. It also gave a DBIL (72 h, time 3 day) of 0.076 mg/dL, a GLC (72 h, time 3 day) of 192.6 mg/dL and an IP (72 h, time 3 day) of 5.8 mg/dL. It also gave a K (72 h, time 3 day) of 4.4 meq/L, an LDH (72 h, time 3 day) of 141.8 IU/L and a Na (72 h, time 3 day) of 140.4 meq/L. The PL (72 h, time 3 day) was 131 mg/dL, the RALB (72 h, time 3 day) was 3.8 g/dL and the TBIL (72 h, time 3 day) was 0.8 mg/dL. For the same compound, the TC (72 h, time 3 day) was 66.2 mg/dL, the TG (72 h, time 3 day) was 68.8 mg/dL and the TP (72 h, time 3 day) was 5.5 g/dL. For the same compound, the gamma-GTP (72 h, time 3 day) was 1.2 IU/L, the TERMINAL_BW ([…], time 7 day) was 261 g and the TERMINAL_BW ([…], time 14 day) was 307.2 g. It also gave a TERMINAL_BW ([…], time 28 day) of 410 g, an APTT ([…], time 7 day) of 20.2 s and a Bas ([…], time 7 day) of 0%. For the same compound, the Eos ([…], time 7 day) was 0.8%, the Fbg ([…], time 7 day) was 207.6 mg/dL and the Hb ([…], time 7 day) was 13.8 g/dL. It also gave a Ht ([…], time 7 day) of 40.6%, a Lym ([…], time 7 day) of 83% and an MCH ([…], time 7 day) of 21.5 pg. For the same compound, the MCHC ([…], time 7 day) was 34%, the MCV ([…], time 7 day) was 63.3 fL and the Mono ([…], time 7 day) was 5.2%. It also gave a Neu ([…], time 7 day) of 11.4%, a PT ([…], time 7 day) of 12.6 s and a Plat ([…], time 7 day) of 132.2 x10_4/uL. It also gave an RBC ([…], time 7 day) of 641.6 x10_4/ul, a Ret ([…], time 7 day) of 6.1% and a WBC ([…], time 7 day) of 123 x10_2/uL. For the same compound, the APTT ([…], time 14 day) was 18.9 s, the Bas ([…], time 14 day) was 0% and the Eos ([…], time 14 day) was 0.6%. For the same compound, the Fbg ([…], time 14 day) was 213.6 mg/dL, the Hb ([…], time 14 day) was 14.7 g/dL and the Ht ([…], time 14 day) was 43%. The Lym ([…], time 14 day) was 83%, the MCH ([…], time 14 day) was 20.9 pg and the MCHC ([…], time 14 day) was 34%. It also gave an MCV ([…], time 14 day) of 61.3 fL, a Mono ([…], time 14 day) of 5.6% and a Neu ([…], time 14 day) of 10.8%. It also gave a PT ([…], time 14 day) of 11.7 s, a Plat ([…], time 14 day) of 128.4 x10_4/uL and an RBC ([…], time 14 day) of 702.2 x10_4/ul. It also gave a Ret ([…], time 14 day) of 3%, a WBC ([…], time 14 day) of 117.7 x10_2/uL and an APTT ([…], time 28 day) of 21 s. It also gave a Bas ([…], time 28 day) of 0%, an Eos ([…], time 28 day) of 1% and a Fbg ([…], time 28 day) of 216.5 mg/dL. It also gave a Hb ([…], time 28 day) of 14.8 g/dL, a Ht ([…], time 28 day) of 43.9% and a Lym ([…], time 28 day) of 83.2%. It also gave an MCH ([…], time 28 day) of 19.5 pg, an MCHC ([…], time 28 day) of 33.8% and an MCV ([…], time 28 day) of 57.8 fL. The Mono ([…], time 28 day) was 5.5%, the Neu ([…], time 28 day) was 10.8% and the PT ([…], time 28 day) was 13.5 s. It also gave a Plat ([…], time 28 day) of 114.5 x10_4/uL, an RBC ([…], time 28 day) of 760.5 x10_4/ul and a Ret ([…], time 28 day) of 3.2%. The WBC ([…], time 28 day) was 142.5 x10_2/uL, the KIDNEY_L ([…], time 7 day) was 1.2 g and the KIDNEY_R ([…], time 7 day) was 1.2 g. The KIDNEY_TOTAL ([…], time 7 day) was 2.3 g, the KIDNEY_L ([…], time 14 day) was 1.2 g and the KIDNEY_R ([…], time 14 day) was 1.2 g. The KIDNEY_TOTAL ([…], time 14 day) was 2.5 g, the KIDNEY_L ([…], time 28 day) was 1.6 g and the KIDNEY_R ([…], time 28 day) was 1.6 g. The KIDNEY_TOTAL ([…], time 28 day) was 3.2 g, the LIVER ([…], time 7 day) was 14.9 g and the LIVER ([…], time 14 day) was 17 g. The LIVER ([…], time 28 day) was 21.1 g, the A/G ([…], time 7 day) was 2 and the ALP ([…], time 7 day) was 1331.4 IU/L. It also gave an ALT ([…], time 7 day) of 37 IU/L, an AST ([…], time 7 day) of 67.6 IU/L and a BUN ([…], time 7 day) of 19.6 mg/dL. The CRE ([…], time 7 day) was 0.5 mg/dL, the Ca ([…], time 7 day) was 11.1 mg/dL and the Cl ([…], time 7 day) was 105 meq/L. For the same compound, the DBIL ([…], time 7 day) was 0.022 mg/dL, the GLC ([…], time 7 day) was 196.8 mg/dL and the IP ([…], time 7 day) was 5.8 mg/dL. The K ([…], time 7 day) was 4.4 meq/L, the LDH ([…], time 7 day) was 115.8 IU/L and the Na ([…], time 7 day) was 141 meq/L. For the same compound, the PL ([…], time 7 day) was 121 mg/dL, the RALB ([…], time 7 day) was 3.8 g/dL and the TBIL ([…], time 7 day) was 0.8 mg/dL. The TC ([…], time 7 day) was 63.6 mg/dL, the TG ([…], time 7 day) was 55.2 mg/dL and the TP ([…], time 7 day) was 5.7 g/dL. For the same compound, the gamma-GTP ([…], time 7 day) was 1 IU/L, the A/G ([…], time 14 day) was 1.9 and the ALP ([…], time 14 day) was 903.6 IU/L. It also gave an ALT ([…], time 14 day) of 36.6 IU/L, an AST ([…], time 14 day) of 60.8 IU/L and a BUN ([…], time 14 day) of 20.4 mg/dL. The CRE ([…], time 14 day) was 0.5 mg/dL, the Ca ([…], time 14 day) was 10.3 mg/dL and the Cl ([…], time 14 day) was 105.2 meq/L. The DBIL ([…], time 14 day) was 0.024 mg/dL, the GLC ([…], time 14 day) was 185.6 mg/dL and the IP ([…], time 14 day) was 5.3 mg/dL. It also gave a K ([…], time 14 day) of 4.2 meq/L, an LDH ([…], time 14 day) of 105.6 IU/L and a Na ([…], time 14 day) of 140.8 meq/L. It also gave a PL ([…], time 14 day) of 130.2 mg/dL, an RALB ([…], time 14 day) of 3.9 g/dL and a TBIL ([…], time 14 day) of 0.7 mg/dL. For the same compound, the TC ([…], time 14 day) was 62.4 mg/dL, the TG ([…], time 14 day) was 79.4 mg/dL and the TP ([…], time 14 day) was 6.1 g/dL. It also gave a gamma-GTP ([…], time 14 day) of 1.4 IU/L, an A/G ([…], time 28 day) of 1.6 and an ALP ([…], time 28 day) of 768 IU/L. For the same compound, the ALT ([…], time 28 day) was 34 IU/L, the AST ([…], time 28 day) was 57 IU/L and the BUN ([…], time 28 day) was 20.2 mg/dL. The CRE ([…], time 28 day) was 0.6 mg/dL, the Ca ([…], time 28 day) was 9.9 mg/dL and the Cl ([…], time 28 day) was 103 meq/L. It also gave a DBIL ([…], time 28 day) of 0.0525 mg/dL, a GLC ([…], time 28 day) of 187 mg/dL and an IP ([…], time 28 day) of 5 mg/dL. The K ([…], time 28 day) was 4 meq/L, the LDH ([…], time 28 day) was 72 IU/L and the Na ([…], time 28 day) was 140 meq/L. It also gave a PL ([…], time 28 day) of 117 mg/dL, an RALB ([…], time 28 day) of 3.7 g/dL and a TBIL ([…], time 28 day) of 0.9 mg/dL. For the same compound, the TC ([…], time 28 day) was 54.8 mg/dL, the TG ([…], time 28 day) was 57.8 mg/dL and the TP ([…], time 28 day) was 6.2 g/dL. For the same compound, the gamma-GTP ([…], time 28 day) was 1.5 IU/L.

Source: ChEMBL document CHEMBL3885861, “Open TG-GATES”
